Reference: patent US10849886B2, “Combination therapy using azabicyclo compound for cancer” (TAIHO PHARMACEUTICAL CO., LTD., priority 2013, dated 2020)

Key:
NCI-H441 tumor = assay: Nude mouse xenograft, NSCLC NCI-H441, tumor growth (T/C); format: in vivo, nude mice; details: Compound 1 5 mg/kg orally, paclitaxel 30 mg/kg intravenously on first day, alone or combined; test end date
SBC-1 tumor = assay: Nude mouse xenograft, small cell lung cancer line SBC-1, tumor growth (T/C); format: in vivo, nude mice; details: Compound 1 28 mg/kg orally on Days 1, 3, 5, 8, 10, 12, amrubicin […] intravenously on first day, alone or combined; test end date
NCI-H2170 tumor = assay: Nude mouse xenograft, NSCLC NCI-H2170, tumor growth (T/C); format: in vivo, nude mice; details: Compound 1 5 mg/kg orally, docetaxel 15 mg/kg intravenously on first day, alone or combined; RTV ratio to control on test end date
Experimental: NCI-H2170 (ATCC #CRL-5928) as a human non-small cell lung cancer (NSCLC) cell line was obtained from American Type Culture Collection (ATCC; Manassas, Va., USA). In RPMI-1640 (containing 4.5 g/L of glucose, 10 mM of HEPES, and 1 mM of sodium pyruvate) (Wako Pure Chemical Industries, Ltd.) medium supplemented with 10% fetal bovine serum (FBS), cell lines were cultured. The cells cryopreserved in liquid nitrogen were quickly thawed at 37° C., transferred to a tissue culture flask containing a medium, and allowed to grow in a 5% CO2 incubator at 37° C. The NCI-H2170 cell lines were sub-cultured once to twice a week at a dilution ratio of 1:5 to 1:10. […]
Subsequently, the cell was allowed to grow for one to two weeks after transplantation until the tumor volume (TV) reached 100 to 300 mm^3. Digimatic Caliper was used in measurement of the tumor diameter, the major axis and the minor axis of the tumor were measured, and TV was calculated by the following formula. […]
Animals having an extremely small or large tumor volume were excluded and the remaining animals were allocated to each group by a stratified randomization allocation method using TV as an index. A relative tumor volume (RTV) was calculated from TV as an endpoint. […] RTV and T/C (%) were calculated by the following formula. […]

NCI-N87 tumor = assay: Nude mouse xenograft, stomach cancer line NCI-N87, tumor growth (T/C); format: in vivo, nude mice; details: Compound 1 5 mg/kg orally, cisplatin 7 mg/kg intravenously on first day, alone or combined; test end date
[1] = Storage stability of Compound 1 suspension in 0.5% hypromellose aqueous solution; format: physicochemical; details: stored in refrigerator
Experimental: In order to administer Compound 1, a 0.5% hypromellose aqueous solution was prepared. Hypromellose was weighed in a beaker, and distilled water (Otsuka Pharmaceutical Factory, Inc.) was added thereto in an amount of about 80% of the preparation amount. The mixture was completely dissolved by being stirred overnight using a stirrer at a low-temperature chamber, the resultant solution was transferred to a measuring cylinder, and distilled water was added to dilute to the preparation amount. Compound 1 was weighed in a necessary amount, pulverized with an agate mortar, suspended with a 0.5% hypromellose aqueous solution to have a predetermined concentration, and then subjected to ultrasonic treatment, thereby obtaining a homogeneous suspension. 10 mL of this suspension was administered orally per kg of body weight. Incidentally, the suspension was stored in a refrigerator at times other than administration.

In the case of `CCc1cc(C(N)=O)ccc1-n1nc(C(C)C)c2c(-n3cnc(-c4cnn(C)c4)c3)ccnc21` [Compound 1, 3-ethyl-4-{3-isopropyl-4-(4-(1-methyl-1H-pyrazol-4-yl)-1H-imidazol-1-yl)-1H-pyrazolo[3,4-b]pyridin-1-yl}benzamide], the T/C value (NCI-H441 tumor) is reported as 63%, the T/C value (SBC-1 tumor) is reported as 49% and the T/C value (NCI-H2170 tumor) is reported as 72%. For the same molecule, the T/C value (NCI-N87 tumor) was 51% and the stability of suspension [1] was “refrigerator-stable for two weeks”.
For `CC(=O)[C@]1(N)Cc2c(O)c3c(c(O)c2[C@@H](O[C@H]2C[C@H](O)[C@H](O)CO2)C1)C(=O)c1ccccc1C3=O` [amrubicin, reference compound], the T/C value (SBC-1 tumor) was 40%.
`N.N.[Cl][Pt][Cl]` [cisplatin, reference compound] gave a T/C value (NCI-N87 tumor) of 65%.
Work on `CC(=O)O[C@@]12CO[C@@H]1C[C@H](O)[C@@]1(C)C(=O)[C@H](O)C3=C(C)[C@@H](OC(=O)[C@H](O)[C@@H](NC(=O)OC(C)(C)C)c4ccccc4)C[C@@](O)([C@@H](OC(=O)c4ccccc4)[C@H]21)C3(C)C` [docetaxel, reference compound] yielded a T/C value (NCI-H2170 tumor) of 86%.
In the case of `CC(=O)O[C@H]1C(=O)[C@@]2(C)[C@H]([C@H](OC(=O)c3ccccc3)[C@]3(O)C[C@H](OC(=O)[C@H](O)[C@@H](NC(=O)c4ccccc4)c4ccccc4)C(C)=C1C3(C)C)[C@]1(OC(C)=O)CO[C@@H]1C[C@@H]2O` [paclitaxel, reference compound], the T/C value (NCI-H441 tumor) is reported as 41%.
